Test results taken from patent US11203602B2, “Thioester prodrugs of macrocycles as inhibitors of histone deacetylases” (OnKure, Inc., priority 2016, dated 2021).
Converted amounts (≈) assume the structure as drawn. Where a name gives a salt, the structure may show the parent alone.

Legend:
[1] = Aqueous solubility at two pH levels; format: physicochemical; details: aqueous solution
Rat PK (p.o.) = format: in vivo; details: plasma, po
melanoma cell lines = details: series of melanoma cell lines; Bowers et al. 2008; cited from earlier work
HDAC = details: cells treated with compound; Ying et al. 2008a; read-out: IC50 HDAC inhibition; cited from earlier work
HCT116 cells = details: Ying et al. 2008b; cited from earlier work
[2] = tested on: HDAC proteins from class I and class II; details: purified full length HDAC proteins; Bowers et al. 2008; cited from earlier work
HCT 116 cells = details: Zeng et al. 2010; cited from earlier work
HLF cells = details: HLF normal cell line; Zeng et al. 2010; cited from earlier work
HEK293 = HEK293 normal cell line; Zeng et al. 2010; cited from earlier work
MDA-MB231 = details: Taori et al. 2008; cited from earlier work
[3] = 10 mg/kg, Vehicle (0.02N HCl sol.)
[4] = 15 mg/kg, Vehicle (0.1N citrate buffer)

solubility ([1]; pH 3, aqueous buffer) [mg/mL]	solubility ([1]; pH 6, aqueous buffer) [mg/mL]	AUC(0-inf) (Rat PK (p.o.); [3]) [ng·h/mL]	Cmax (Rat PK (p.o.); [3]) [ng/mL]	Tmax (Rat PK (p.o.); [3]) [h]	half-life (Rat PK (p.o.); [3]) [h]	Compound	further results
8.67	10.5	257	86	0.42	8.53	CC(C)[C@@H]1NC(=O)C(C)(C)NC(=O)c2csc(n2)CNC(=O)C[C@@H](/C=C/CCSC(=O)[C@H](N)C(C)C)OC1=O.Cl [Example 1, (R)—S-((E)-4-((7S,10S)-7-isopropyl-4,4-dimethyl-2,5,8,12-tetraoxo-9-oxa-16-thia-3,6,13,18-tetraazabicyclo[13.2.1]octadeca-1(17),15(18)-dien-10-yl)but-3-en-1-yl) 2-amino-3-methylbutanethioate Hydrochloride]	
12.3	18	267	123	0.48	8.23	CC(C)[C@H](N)C(=O)SCC/C=C/[C@@H]1CC(=O)NCc2nc(cs2)C(=O)NC(C)(C)C(=O)N[C@@H](C(C)C)C(=O)O1.Cl [Example 2, (S)—S-((E)-4-((7S,10S)-7-isopropyl-4,4-dimethyl-2,5,8,12-tetraoxo-9-oxa-16-thia-3,6,13,18-tetraazabicyclo[13.2.1]octadeca-1(17),15(18)-dien-10-yl)but-3-en-1-yl) 2-amino-3-methylbutanethioate Hydrochloride]	
7.5						CC(C)[C@H](N)C(=O)SCC/C=C/[C@@H]1CC(=O)NCc2nc(cs2)C(=O)NC(C)(C)C(=O)N[C@@H](C(C)C)C(=O)O1.O=S(=O)(O)c1ccccc1 [Example 3, (S)—S-((E)-4-((7S,10S)-7-isopropyl-4,4-dimethyl-2,5,8,12-tetraoxo-9-oxa-16-thia-3,6,13,18-tetraazabicyclo[13.2.1]octadeca-1(17),15(18)-dien-10-yl)but-3-en-1-yl) 2-amino-3-methylbutanethioate Benzenesulfonate]	AUC(0-inf) (Rat PK (p.o.); [4]): 583 ng·h/mL; Cmax (Rat PK (p.o.); [4]): 253 ng/mL; Tmax (Rat PK (p.o.); [4]): 0.6 h; half-life (Rat PK (p.o.); [4]): 12.4 h
15.4	25.2	176	51	1	6.09	CC(C)[C@@H]1NC(=O)C(C)(C)NC(=O)c2csc(n2)CNC(=O)C[C@@H](/C=C/CCSC(=O)[C@H](C)N)OC1=O [Example 4, (S)—S-((E)-4-((7S,10S)-7-isopropyl-4,4-dimethyl-2,5,8,12-tetraoxo-9-oxa-16-thia-3,6,13,18-tetraazabicyclo[13.2.1]octadeca-1(17),15(18)-dien-10-yl)but-3-en-1-yl) 2-aminopropanethioate Oxalate]	
45.5	41.8					CC(C)[C@@H]1NC(=O)C(C)(C)NC(=O)c2csc(n2)CNC(=O)C[C@@H](/C=C/CCSC(=O)[C@@H](C)N)OC1=O [Example 5, (R)—S-((E)-4-((7S,10S)-7-isopropyl-4,4-dimethyl-2,5,8,12-tetraoxo-9-oxa-16-thia-3,6,13,18-tetraazabicyclo[13.2.1]octadeca-1(17),15(18)-dien-10-yl)but-3-en-1-yl) 2-aminopropanethioate Oxalate]	
2.45 (≈ 4.32 mM)	2.32 (≈ 4.09 mM)	272	107	0.83	5.86	CC(C)[C@@H]1NC(=O)C(C)(C)NC(=O)c2csc(n2)CNC(=O)C[C@@H](/C=C/CCSC(=O)CN(C)C)OC1=O [Example 6, S-((E)-4-((7S,10S)-7-isopropyl-4,4-dimethyl-2,5,8,12-tetraoxo-9-oxa-16-thia-3,6,13,18-tetraazabicyclo[13.2.1]octadeca-1(17),15(18)-dien-10-yl)but-3-en-1-yl) 2-(dimethylamino)ethanethioate]	
		240	150	0.33	6.88	CC(C)[C@@H]1NC(=O)C(C)(C)NC(=O)c2csc(n2)CNC(=O)C[C@@H](/C=C/CCSC(=O)c2cccnc2)OC1=O [Example 7, S-((E)-4-((7S,10S,Z)-7-isopropyl-4,4-dimethyl-2,5,8,12-tetraoxo-9-oxa-3,6,13-triaza-1(4,2)-thiazolacyclotetradecaphane-10-yl)but-3-en-1-yl) pyridine-3-carbothioate]	
						CC(C)[C@@H]1NC(=O)[C@]2(C)CSC(=N2)c2csc(n2)CNC(=O)C[C@@H](/C=C/CCS)OC1=O [largazole thiol]	IC50 (melanoma cell lines): 380 to 2600 nM; IC50 (HDAC): 209 nM; GI50 (HCT116 cells): 38 nM
						CCCCCCCC(=O)SCC/C=C/[C@@H]1CC(=O)NCc2nc(cs2)C2=N[C@@](C)(CS2)C(=O)N[C@@H](C(C)C)C(=O)O1 [largazole, Largazole]	HDAC inhibition in vitro compared to the thiol [2]: much weaker HDAC inhibitor; preference for HDACs 1, 2, and 3 over HDAC6 [2]: pronounced preference; GI50 (HCT 116 cells): 80 nM; IC50 (melanoma cell lines): 45 to 315 nM; IC50 (HDAC): 51 nM; GI50 (HLF cells): 980 nM; GI50 (HCT116 cells): 44 nM; GI50 (HEK293): 1360 nM; GI50 (MDA-MB231): 7.7 nM
